# Source: patent US20260315416A1, “PHENYLLACTIC ACID COMPOSITIONS AND RELATED METHODS OF USE” (priority 2023, published 2026)
# Columns and labels:
# [1] = pH determination of PLA ILs dissolved in water; assay type: physicochemical
# Method: (§1) The equilibrium solubility of D-PLA, L-PLA, and their ILs was determined using a previously reported method.^30 An excess amount of D-PLA, L-PLA, or their ILs was added in an Eppendorf tube along with 1 mL of water. The sample was placed on an orbital shaker and was equilibrated at room temperature for 24 h with a speed of 200 rpm. After 24 h, the samples were centrifuged, the supernatant was filtered using a 0.22 μm syringe filter and further diluted using methanol as necessary. The D-PLA or L-PLA content in the supernatant was analyzed using the HPLC method to calculate the equilibrium solubility. Further, the pH values of D-PLA, L-PLA, and their ILs dissolved in water were determined using a VWR 1100L pH meter.
# [2] = Thermogravimetric analysis (TGA), thermal stability; assay type: physicochemical; settings: 30-350° C. at 10° C./min, nitrogen
# Method: TA Instruments Discovery TGA 5500 (TA instruments, New Castle, DE, USA) was used to analyse pure PLA, carnitine, and various PLA ILs. The samples were accurately weighed (2-5 mg) in platinum pans and placed onto the autosampler. The samples were heated from 30° C. to 350° C. at 10° C./min; nitrogen was purged at a rate of 25 mL/min. TRIOS software (TA instruments, New Castle, DE, USA) was used to analyse the data.
# [3] = Differential scanning calorimetry (DSC), glass transition temperature; assay type: physicochemical; settings: cool/heat 5° C./min, 30 to −80° C.
# Method: The TA Instruments DSC 2500 RCS40 cooling unit (TA instruments, New Castle, DE, USA), calibrated with indium, was used to record thermograms of pure compounds of D-PLA, L-PLA, carnitine, and their corresponding ILs. The samples were weighed (6-10 mg) and hermetically sealed in Tzero aluminium pans, along with an empty reference Tzero pan. The atmosphere was inert because of nitrogen purge at a rate of 25 mL/min. The samples were heated from 30° C. to the temperature equivalent to a 5% weight loss point with a 5° C./min ramp for each sample to observe thermal transitions. The glass transition temperature (Tg) for each sample was recorded in the cool/heat run at 5° C./min ramp from 30° C. to −80° C., and from −80° C. to 30° C. TRIOS software (TA instruments, New Castle, DE, USA) was used to analyse the data.
# [4] = test system: human cervical epithelial cells (A2EN); test: Crystal violet staining for cervical cell morphology; assay type: cell-based; settings: 24 h; even at 100 mM
# Method: (§2) Human endocervical epithelial cell line (A2EN), generated from human endocervical explant tissue^31, was cultured as monolayers in keratinocyte serum-free medium (KFSM) supplemented with recombinant epidermal growth factor (5 ng/ml), bovine pituitary extract (50 μg/ml; Gibco), CaCl2 ([…]; Sigma-Aldrich), and primocin (100 μg/ml; InvivoGen, San Diego, CA), herein referred to as A2 medium, at 37° C. under 5% carbon dioxide (CO2) atmosphere.
# (§3) Prior to cytotoxicity testing, PLA ILs were diluted to 1 M concentrations with distilled water and filtered using a sterile 0.2 μm syringe filter. Solutions with pH ranging from 4 to 7.5 were prepared by adjusting the pH of A2 media with hydrochloric acid (HCl), following filtration using a sterile 0.2 μm syringe filter.
# Cervical cell morphology following PLA IL treatment was visualised using 2.3% crystal violet stain with 0.1% ammonium oxalate and 20% ethanol (Sigma-Aldrich). Cervical cell monolayers were seeded into a tissue-treated 24-well microtiter plate (Falcon) at a density of 1.5×10^5 cells/well and incubated for 24 h at 37° C. under 5% CO2. Two-fold serial dilutions of each PLA IL were prepared and aliquoted into respective wells to obtain final concentrations of 3.125 to 100 mM. Deionised water and 1% Conceptrol (v/v), containing the detergent, nonoxynol-9, were used as negative and positive controls, respectively. […]
# [5] = test system: human cervical epithelial cells (A2EN); test: MTT assay for cervical cell proliferation/viability; assay type: cell-based; settings: 24 h; even at 50 mM
# Method: as §2, §3
# Cervical cell monolayers were seeded into a tissue-treated 96-well microtiter plate (Corning Costar) at a density of 2.0×10^4 cells/well and incubated for 24 h at 37° C. under 5% CO2. Cells were treated with each PLA IL at concentrations ranging to 3.125 to 100 mM and incubated for 24 h (37° C. under 5% CO2). […] Absorbance was measured at 570 nm (reference 650 nm) and recorded using the Safire II Multi-Mode Microplate reader (Tecan, Mannedorf, Switzerland). Percentage cell viability was calculated as [sample absorbance−media background absorbance]/[control absorbance−media background absorbance]×100. […]
# [6] = Equilibrium (saturation) solubility in water; assay type: physicochemical; settings: room temperature, HPLC; for saturation/equilibrium solubility in water: 24 h, 1440 min
# Method: To evaluate the purity of the synthesized D- or L-PLA ILs and for the determination of their water solubility, a reverse phase-HPLC method was developed. The HPLC apparatus consisted of a Shimadzu LC2050C-3D system with a PDA detector. Samples were run through a C18 precolumn and a Gemini C18 reverse-phase column [150×4.5 mm (ID.)] with 5 μm particle size packing (Phenomenex, Torrance, CA). The mobile phase contained acetonitrile and 20 mM phosphoric acid solution in water (25:75). The flow rate of the mobile phase was at 0.8 mL/min, the column oven was set at 45° C., the injection volume was 10 μL, and the detection was carried out at 210 nm. The retention time for PLA was 5.5 min. For the standard curve, D- or L-PLA stock solutions (0.1 mg/mL) were prepared in methanol. The stock solutions were diluted to obtain solutions of various concentrations. The standard curve was obtained by injecting 5-25 μg/mL of PLA. All the experiments were performed in triplicate.
# as §1
# [7] = Kinetic solubility in water; assay type: physicochemical; settings: vs equilibrium solubility
# bacteria and fungi = settings: D-PLA vs L-PLA; cited from earlier work
# [8] = test system: peroxisome proliferator-activated receptor γ (PPAR-γ); settings: mouse model, early-life antibiotic exposure and high-fat diet; cited from earlier work
# [9] = test system: Salmonella enterica serovar Typhimurium-induced colitis; settings: mice; cited from earlier work
# [10] = test system: urogenital pathogens (Streptococcus agalactiae, Klebsiella pneumoniae, Candida albicans); settings: in vitro; gram-positive, gram-negative and fungal urogenital pathogens; cited from earlier work
# [11] = test system: cervicovaginal epithelial barrier; settings: cited from earlier work
T5% (onset temperature at 5% mass loss) [2] [°C],SMILES,saturation/equilibrium solubility in water [6] [mg/mL],solubility thermodynamic at 24 h [6] [mg/mL],kinetic solubility in water [7],other results
–,O=C(O)[C@H](O)Cc1ccccc1 [D-PLA],> 25,33.1 ± 0.44,considerably lower,antimicrobial activity of enantiomer (bacteria and fungi): greater antimicrobial activity than L-PLA
156.07,O=C(O)[C@@H](O)Cc1ccccc1 [L-PLA],> 25,25.7 ± 1.02,considerably lower,–
–,"O=C(O)C(O)Cc1ccccc1 (centres unmarked) [PLA, 2-hydroxy-3-phenylpropanoic acid]",–,–,low kinetic solubility in water,PPAR-γ activity [8]: upregulates intestinal peroxisome proliferator-activated receptor γ (PPAR-γ) activity; protection against colitis [9]: protect against Salmonella enterica serovar Typhimurium-induced colitis in mice; antimicrobial properties [10]: exhibits antimicrobial properties
189.9,C[N+](C)(C)C[C@H](O)CC(=O)[O-] [carnitine],–,–,–,–
–,CC(O)C(=O)O (centres unmarked) [lactic acid],–,–,–,"anti-inflammatory activity [11]: anti-inflammatory activity; epithelial barrier integrity ([11]; physiological concentrations, tight junction protein expression): enhance cervicovaginal epithelial barrier integrity"

SMILES,T5% (onset temperature at 5% mass loss) [2] [°C],saturation/equilibrium solubility in water [6] [mg/mL],solubility thermodynamic at 24 h [6] [mg/mL],kinetic solubility in water [7],other results
C[N+](C)(C)CCO.O=C([O-])[C@H](O)Cc1ccccc1 [Chol:D-PLA (1:1)],94.3,–,–,–,pH [1]: ~ 9; glass transition temperature (Tg) [3]: −63.53 °C; morphological changes [4]: no morphological changes were observed; cell viability [5]: did not significantly reduce cervical epithelial cell viability
